One data set addresses T1, Interstitial collagenase (Homo sapiens, UniProt P03956).
T1 sequence (P03956 whole entry): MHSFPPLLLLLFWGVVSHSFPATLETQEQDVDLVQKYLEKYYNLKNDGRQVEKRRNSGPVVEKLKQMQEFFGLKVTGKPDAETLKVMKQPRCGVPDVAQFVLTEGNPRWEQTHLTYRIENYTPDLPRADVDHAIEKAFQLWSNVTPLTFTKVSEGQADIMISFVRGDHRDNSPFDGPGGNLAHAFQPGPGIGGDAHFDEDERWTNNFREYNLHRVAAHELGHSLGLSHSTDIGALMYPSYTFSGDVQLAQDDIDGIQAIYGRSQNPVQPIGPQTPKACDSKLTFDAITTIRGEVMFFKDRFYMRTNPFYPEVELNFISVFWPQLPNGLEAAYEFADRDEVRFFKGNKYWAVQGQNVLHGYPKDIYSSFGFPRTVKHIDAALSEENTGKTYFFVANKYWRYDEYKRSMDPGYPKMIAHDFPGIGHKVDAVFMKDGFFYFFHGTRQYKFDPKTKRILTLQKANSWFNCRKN
Kind of data set: Inhibition of human MMP1 using Mca-PQGL-(3-[2,4-dinitrophenyl]-L-2,3-diaminopropionyl)-AR-OH as substrate measured after 2 to 4 hrs by fluorescence analysis.

The next data set deals with Stromelysin-1 (Homo sapiens, UniProt P08254). Kind of data set: Inhibition of human MMP3 using Mca-PQGL-(3-[2,4-dinitrophenyl]-L-2,3-diaminopropionyl)-AR-OH as substrate measured after 2 to 4 hrs by fluorescence analysis.
Sequence of Stromelysin-1 (P08254 whole entry): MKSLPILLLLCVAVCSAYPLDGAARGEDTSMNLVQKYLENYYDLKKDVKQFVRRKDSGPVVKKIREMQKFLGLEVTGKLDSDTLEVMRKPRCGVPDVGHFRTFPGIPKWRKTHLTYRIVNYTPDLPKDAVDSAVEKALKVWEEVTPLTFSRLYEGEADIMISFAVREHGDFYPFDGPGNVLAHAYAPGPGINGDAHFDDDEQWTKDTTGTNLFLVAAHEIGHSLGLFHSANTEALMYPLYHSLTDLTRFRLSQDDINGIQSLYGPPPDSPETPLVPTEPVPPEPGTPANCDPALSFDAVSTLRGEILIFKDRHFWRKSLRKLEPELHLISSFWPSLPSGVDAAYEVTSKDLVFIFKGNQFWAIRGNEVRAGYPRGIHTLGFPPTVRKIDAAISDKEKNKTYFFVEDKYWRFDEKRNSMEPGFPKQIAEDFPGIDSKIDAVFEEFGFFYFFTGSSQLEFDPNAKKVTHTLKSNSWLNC
In data set [1] the target is Matrix metalloproteinase-14 (Homo sapiens, UniProt P50281). Kind of data set: Inhibition of human MMP14 using Mca-PQGL-(3-[2,4-dinitrophenyl]-L-2,3-diaminopropionyl)-AR-OH as substrate measured after 2 to 4 hrs by fluorescence analysis.
The target of data set [2] is Disintegrin and metalloproteinase domain-containing protein 17 (Homo sapiens, UniProt P78536). Kind of data set: Inhibition of human TACE using Mca-PQGL-(3-[2,4-dinitrophenyl]-L-2,3-diaminopropionyl)-AR-OH as substrate measured after 2 to 4 hrs by fluorescence analysis.
Sequence of Disintegrin and metalloproteinase domain-containing protein 17 (P78536 whole entry, the tested form may be a part): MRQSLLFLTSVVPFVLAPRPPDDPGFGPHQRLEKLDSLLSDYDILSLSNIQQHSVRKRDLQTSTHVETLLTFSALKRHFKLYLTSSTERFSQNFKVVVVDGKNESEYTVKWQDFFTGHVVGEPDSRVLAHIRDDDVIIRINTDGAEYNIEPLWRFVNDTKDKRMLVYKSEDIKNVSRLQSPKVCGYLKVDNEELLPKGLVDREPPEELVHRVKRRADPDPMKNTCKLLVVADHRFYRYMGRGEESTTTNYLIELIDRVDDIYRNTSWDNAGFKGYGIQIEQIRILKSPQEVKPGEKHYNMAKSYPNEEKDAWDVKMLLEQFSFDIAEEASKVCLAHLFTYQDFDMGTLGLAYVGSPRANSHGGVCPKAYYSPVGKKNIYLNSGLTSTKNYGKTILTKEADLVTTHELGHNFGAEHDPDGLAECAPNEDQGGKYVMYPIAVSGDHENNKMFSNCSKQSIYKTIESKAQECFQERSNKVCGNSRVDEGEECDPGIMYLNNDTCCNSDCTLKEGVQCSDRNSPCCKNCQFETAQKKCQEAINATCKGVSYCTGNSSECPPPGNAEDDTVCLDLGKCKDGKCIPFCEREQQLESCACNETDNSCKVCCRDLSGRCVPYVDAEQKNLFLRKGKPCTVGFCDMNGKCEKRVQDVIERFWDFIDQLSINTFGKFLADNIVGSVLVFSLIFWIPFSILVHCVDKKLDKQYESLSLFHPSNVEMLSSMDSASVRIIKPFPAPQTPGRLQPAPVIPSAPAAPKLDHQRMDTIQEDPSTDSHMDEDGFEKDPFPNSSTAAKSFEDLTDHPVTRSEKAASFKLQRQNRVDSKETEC
Data set [3] in a line: AUC in Lewis rat at 10 mg/kg, po. The class given is ADME, organism-based. The settings on record: in vivo.
Data set [4] can be described thus: Cmax in Lewis rat plasma at 10 mg/kg, po. The class given is ADME, organism-based. Set-up: dose 10 mg/kg, route oral.
The nature of data set [5]: Ratio of Cmax in Lewis rat plasma to IC50 for human ADAMTS5 in presence of Lewis rat plasma. The format is ADME. The following applies: in vivo.
In data set [6] the test system is Rattus norvegicus. Kind of data set: Reduction in ADAMTS-4/ADAMTS-5 mediated aggrecan cleavage products in Lewis rat model of MIA assessed as aggrecanase-cleaved fragments at 10 mg/kg, po bid administered post 3 days MIA induction measured after 4 hrs of last dosage on day 7 by NITEGE sandwich ELISA. The class given is functional. Background: An ELISA detects its analyte on a solid surface through an enzyme-linked reagent.

The subject of data set [7] is Rattus norvegicus. The experiment in a line: Reduction in ADAMTS-4/ADAMTS-5 mediated aggrecan cleavage products in Lewis rat model of MIA assessed as aggrecanase-cleaved fragments at 100 mg/kg, po bid administered post 3 days MIA induction measured after 4 hrs of last dosage on day 7 by NITEGE sandwich ELISA. The class given is functional.
Data set [8] can be described thus: Ratio of plasma concentration in Lewis rat model of MIA at 100 mg/kg, po bid administered post 3 days MIA induction measured after 4 hrs of last dosage on day 7 to IC50 for human ADAMTS5 in presence of Lewis rat plasma. The format is ADME, organism-based. The following applies: in vivo.
Data set [9] deals with T2, ADAMTS5 (Rattus norvegicus) (UniProt Q6TY19).
T2 sequence (whole entry): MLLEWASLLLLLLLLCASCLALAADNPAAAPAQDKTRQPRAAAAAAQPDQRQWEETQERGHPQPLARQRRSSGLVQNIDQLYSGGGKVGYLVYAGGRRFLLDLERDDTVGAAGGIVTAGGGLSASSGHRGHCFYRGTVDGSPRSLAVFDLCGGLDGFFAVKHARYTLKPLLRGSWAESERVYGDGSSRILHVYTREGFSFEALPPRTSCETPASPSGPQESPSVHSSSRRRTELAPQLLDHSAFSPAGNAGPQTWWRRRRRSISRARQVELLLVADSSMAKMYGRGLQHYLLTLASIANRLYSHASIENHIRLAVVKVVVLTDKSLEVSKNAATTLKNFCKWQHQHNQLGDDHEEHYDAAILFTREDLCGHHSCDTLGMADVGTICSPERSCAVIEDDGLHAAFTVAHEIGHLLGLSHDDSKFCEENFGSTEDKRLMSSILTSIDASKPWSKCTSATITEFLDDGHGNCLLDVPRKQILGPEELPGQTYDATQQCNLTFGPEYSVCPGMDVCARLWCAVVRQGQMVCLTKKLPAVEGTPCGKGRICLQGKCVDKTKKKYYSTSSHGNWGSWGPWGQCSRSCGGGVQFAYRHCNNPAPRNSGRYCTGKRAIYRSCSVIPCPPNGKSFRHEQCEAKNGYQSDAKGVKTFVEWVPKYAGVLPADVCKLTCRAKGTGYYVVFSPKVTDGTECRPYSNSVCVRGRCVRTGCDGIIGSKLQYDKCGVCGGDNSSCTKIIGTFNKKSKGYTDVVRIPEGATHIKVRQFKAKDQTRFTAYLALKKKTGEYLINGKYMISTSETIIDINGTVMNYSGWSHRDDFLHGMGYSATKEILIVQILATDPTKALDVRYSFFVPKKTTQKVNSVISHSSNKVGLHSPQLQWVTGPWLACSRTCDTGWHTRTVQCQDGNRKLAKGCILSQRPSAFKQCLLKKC
Kind of data set: Inhibition of rat ADAMTS5 using 43-mer VQTVTWPDMELPLPRNITEGEARGSVILTVKPIFEVSPSPLKG as substrate measured after 3 hrs by AlphaScreen assay. A general note: Bead proximity is the source of the signal in Alpha formats.

The species entered for data set [10] is Homo sapiens. The experiment in a line: Selectivity ratio of IC50 for human MMP3 to IC50 for human ADAMTS4.
For data set [11], the species on record is Homo sapiens. Kind of data set: Selectivity ratio of IC50 for human MMP7 to IC50 for human ADAMTS4.
Data set [12] is filed under the species Homo sapiens. The experiment in a line: Selectivity ratio of IC50 for human MMP9 to IC50 for human ADAMTS4.
For data set [13], the species on record is Homo sapiens. Kind of data set: Selectivity ratio of IC50 for human MMP14 to IC50 for human ADAMTS4.
The species entered for data set [14] is Homo sapiens. Kind of data set: Selectivity ratio of IC50 for human MMP2 to IC50 for human ADAMTS5.
The species entered for data set [15] is Homo sapiens. The experiment in a line: Selectivity ratio of IC50 for human MMP3 to IC50 for human ADAMTS5.
Data set [16] is filed under the species Homo sapiens. The experiment in a line: Selectivity ratio of IC50 for human MMP7 to IC50 for human ADAMTS5.
For data set [17], the species on record is Homo sapiens. Kind of data set: Selectivity ratio of IC50 for human MMP9 to IC50 for human ADAMTS5.

The structures appear in SMILES notation. The source made the active and inactive calls. No cut-off for these calls is given here.

For orientation: IC50 means the concentration that gives 50% inhibition. High values mean weaker potency in that assay, low ones greater potency in that assay. Broadly, the AUC is the area under the concentration-time curve, a measure of exposure. A high value points to more exposure. The term Cmax denotes the maximum level reached in the sampled fluid or tissue. In general, inhibition in vivo refers to the share of the control response that was lost under treatment. With `CCn1ccnc1[C@]1(CNC(=O)c2cc3cc(C(F)(F)F)ccc3o2)NC(=O)NC1=O`, the IC50 amounted to 100 µM on Interstitial collagenase, 60 µM against Stromelysin-1, 78 µM in [1] and 10 µM in data set [2]. Also, the AUC in data set [3] came out at 28 µM·h. In data set [4], this compound registered a Cmax of 18 µM. The Ratio in data set [5] came to 270; in [8], 160. Also, the inhibition in vivo at 10 mg/kg in the data set with Rattus norvegicus [6] worked out at 19%. The inhibition in vivo at 100 mg/kg with Rattus norvegicus [7] was 49%. For the same compound, in data set [9], the inhibition entry is “Active”. Besides, the Ratio IC50 in the data set filed under Homo sapiens [10], in the data set filed under Homo sapiens [11], in the data set listed under Homo sapiens [12], in the data set filed under Homo sapiens [13], in the data set filed under Homo sapiens [14] and in the data set filed under Homo sapiens [15] was greater than 1000 throughout. The Ratio IC50 in the data set listed under Homo sapiens [16] and in the data set listed under Homo sapiens [17] was greater than 1000 each time.
Take `CCn1ccnc1[C@]1(CNC(=O)c2cc3cc(Cl)ccc3o2)NC(=O)NC1=O`: the IC50 at Stromelysin-1 came to 23 µM; in data set [1], 34 µM; in data set [2] it was 10 µM. The AUC in [3] stood at 20 µM·h. The peak level in data set [4] (Cmax) was 23 µM. Moreover, the Ratio in [5] is given as 160. The inhibition result in [9] was “Active”. For the same compound, the Ratio IC50 in the data set filed under Homo sapiens [10], in the data set listed under Homo sapiens [11], in the data set filed under Homo sapiens [12], in the data set filed under Homo sapiens [13], in the data set filed under Homo sapiens [14] and in the data set listed under Homo sapiens [15] was greater than 1000 throughout. For the same compound, the Ratio IC50 in the data set listed under Homo sapiens [16] and in the data set listed under Homo sapiens [17] was greater than 1000 in each case.
As for `O=C1NC(=O)[C@](CNC(=O)c2cc3cc(C(F)(F)F)ccc3o2)(C2CC2)N1`, the values for the IC50 (against Interstitial collagenase; at Stromelysin-1; in [1]) were 50 µM, 17 µM and 7.6 µM, respectively. Besides, the inhibition entry in [9] is “Active”. Moreover, the Ratio IC50 in the data set listed under Homo sapiens [10], in the data set listed under Homo sapiens [11], in the data set listed under Homo sapiens [12], in the data set filed under Homo sapiens [13], in the data set filed under Homo sapiens [14] and in the data set listed under Homo sapiens [15] was greater than 1000 in each case. In addition, the Ratio IC50 in the data set listed under Homo sapiens [16] and in the data set listed under Homo sapiens [17] was greater than 1000 throughout.
As for `Cn1ccnc1[C@]1(CNC(=O)c2cc3cc(Cl)ccc3o2)NC(=O)NC1=O`, the IC50 on Interstitial collagenase stood at 19 µM; against Stromelysin-1, 23 µM; in data set [1] it was 37 µM; in [2], 10 µM. In [4], this compound displayed a Cmax of 11 µM. Besides, the Ratio in data set [5] is reported as 139. For the same compound, the inhibition result in data set [9] is “Active”. Also, the Ratio IC50 in the data set listed under Homo sapiens [10], in the data set filed under Homo sapiens [11], in the data set listed under Homo sapiens [12], in the data set filed under Homo sapiens [13], in the data set listed under Homo sapiens [14] and in the data set listed under Homo sapiens [15] was greater than 1000 throughout. For the same compound, the Ratio IC50 in the data set filed under Homo sapiens [16] and in the data set listed under Homo sapiens [17] was greater than 1000 each time.
On Interstitial collagenase, `Cn1ccnc1[C@]1(CNC(=O)c2cc3cc(C(F)(F)F)ccc3o2)NC(=O)NC1=O` had an IC50 of 100 µM. Moreover, the values for the Ratio in [5] and in data set [8] were 220 and 310, respectively. For the same compound, the inhibition in vivo at 10 mg/kg in the data set with Rattus norvegicus [6] worked out at 32%. Moreover, the inhibition in vivo at 100 mg/kg in the data set on Rattus norvegicus [7] was 68%. Also, in data set [9], the inhibition result was “Active”. Further, the Ratio IC50 in the data set listed under Homo sapiens [10], in the data set filed under Homo sapiens [11], in the data set filed under Homo sapiens [12], in the data set listed under Homo sapiens [13], in the data set listed under Homo sapiens [14] and in the data set listed under Homo sapiens [15] was greater than 1000 in each case. Further, the Ratio IC50 in the data set filed under Homo sapiens [16] and in the data set filed under Homo sapiens [17] was greater than 1000 throughout.
Turning to `Cc1cnc([C@]2(CNC(=O)c3cc4cc(Cl)ccc4o3)NC(=O)NC2=O)n1C`, the IC50 was found to be 7.1 µM on Stromelysin-1, 26 µM in data set [1] and 8.9 µM in data set [2]. In [3], this compound displayed an AUC of 27 µM·h. In data set [4], the concentration peaked (Cmax) at 18 µM. Moreover, the Ratio in [5] was determined as 160. Also, the inhibition result in data set [9] is “Active”. Also, the Ratio IC50 in the data set listed under Homo sapiens [10], in the data set filed under Homo sapiens [11], in the data set filed under Homo sapiens [12], in the data set filed under Homo sapiens [13], in the data set listed under Homo sapiens [14] and in the data set filed under Homo sapiens [15] was greater than 1000 throughout. The Ratio IC50 in the data set listed under Homo sapiens [16] and in the data set filed under Homo sapiens [17] was greater than 1000 in each case.
For `Cc1cnc([C@]2(CNC(=O)c3cc4cc(C(F)(F)F)ccc4o3)NC(=O)NC2=O)n1C`, the IC50 came out at 100 µM against Interstitial collagenase, 51 µM against Stromelysin-1, 57 µM in data set [1] and 10 µM in data set [2]. The same compound yielded an AUC in data set [3] of 21 µM·h. In addition, in [4], the Cmax turned out to be 11 µM. Also, the Ratio stood at 170 in data set [5] and 490 in data set [8]. Moreover, the inhibition in vivo at 10 mg/kg in the data set with Rattus norvegicus [6] is 17%. Also, the inhibition in vivo at 100 mg/kg in the data set with Rattus norvegicus [7] came out at 62%. For the same compound, the inhibition entry in data set [9] is “Active”. Moreover, the Ratio IC50 in the data set listed under Homo sapiens [10], in the data set listed under Homo sapiens [11], in the data set filed under Homo sapiens [12], in the data set filed under Homo sapiens [13], in the data set listed under Homo sapiens [14] and in the data set listed under Homo sapiens [15] was greater than 1000 each time. For the same compound, the Ratio IC50 in the data set filed under Homo sapiens [16] and in the data set filed under Homo sapiens [17] was greater than 1000 in each case.

The values above are taken from ChEMBL document CHEMBL4425099, “Use of Osmotic Pumps to Establish the Pharmacokinetic-Pharmacodynamic Relationship and Define Desirable Human Performance Characteristics for Aggrecanase Inhibitors” (J Med Chem, 2016).
